Converted amounts (≈) assume the structure as drawn. Read-outs that look alike come from different tables or passages of the source.
Columns and labels:
Type in all cases: cell-based
[1] = system: Staphylococcus aureus ATCC 6538; assay: Minimal Kill Concentration Assay (MKCA), S. aureus
Description: (§1) The MKC assay is a 96 well plate method to determine the minimum concentration of a test material or composition needed to kill Gram-negative and Gram-positive bacteria (Escherichia coli ATCC 8739 and Staphylococcus aureus ATCC 6538, respectively). The bacterial suspensions are prepared from 10× freezer stocks with 15% glycerol. The freezer stocks are centrifuged at 13,000×g (Eppendorf Centrifuge […] No. 541705483) for 1 minute. The supernatant is removed, and the cell pellet is resuspended in 1 mL saline (Sodium chloride solution 0.9%, Cytiva REF: Z1376), and then transferred to 9 mL saline. The target cfu/ml is 10^8, which is confirmed via serial diluting and plating on TSA plates (Tryptic Soy Agar-Sigma-Aldrich Cat #22091). Then 50 μL (25 μL if low on test materials) of bacteria is added to each well of a 96 well 0.5 mL V-Bottom plate (Greiner bio-one REF: 786201) to make a bacteria plate, one separate plate for each bacterium. The dilutions of the test compounds are prepared in a separate 96 well plate. The test compounds are tested at six dilutions in duplicates or with no replication diluted across the entire plate. The test compounds are prepared in Dimethyl Sulfoxide (Sigma Aldrich GR ACS Cat. No: MX1458-6) or sterile water at 2× the intended test concentration, and then serially diluted in the appropriate vehicle 1:2 across the plate using a multichannel. 50 μL (25 μL if low on test materials) from the test compound plate is added to each well in the bacteria plate all at once using an Integra VIAFLOW 96 channel pipette (Model: VIAFLO 96) and the Integra 300 μL Head (Part No. 6103). With addition of the 2× compounds bacteria plate, the compounds are diluted to a 1× test concentration. The addition of the test compounds to the bacteria wells starts the 20-minute contact time. The plates are mixed well using a Mix-Mate (Eppendorf SE). After 20 minutes, 1 μL from each well of the bacteria plate is transferred to premade Tryptic Soy Agar (TSA) plates (OmniTray Cell Culture Treated w/Lid Sterile, Cat. No: 165218) for spot plating using the Integra VIAFLOW 96 with the Integra 12.5 μL head (Part No. 6101). Then 4 μL from each well of the bacteria/compound plate is transferred to another 96 well plate containing 36 μL of neutralizer broth Modified Letheen Broth (BD Difco Letheen Broth, Modified REF 263010). The contact time is stopped at 20 minutes once the compound plate is neutralized. The plates are mixed well using a Mix-Mate and then 1 μL of the neutralizer+sample mix is transferred to a TSA OmniTray plate using the Integra VIAFLOW and Integra 12.5 μL head. The TSA spot plates are then incubated overnight for 20 hours at 37° C. in an Incubator. This process is done for both bacteria species. After overnight incubation, the plates are removed from the incubator and the results recorded by observing which dilutions had bacterial kill/growth. The last dilution that had kill for both replicates is recorded as the MKC. A positive control of Benzalkonium chloride (Sigma Aldrich Cat. No.: 12060-5G) and vehicle controls are always included in the test.

[2] = system: Staphylococcus aureus ATCC #6538; assay: Minimum Inhibitory Concentration (MIC) Assay with Minimum Biocidal Concentration (MBC); conditions: solvent DMSO; for MBC / MIC: Staphylococcus aureus, ATCC6538, 24 h; for MBC: read-out: S. aureus MBC (ppm); for MIC: read-out: S. aureus MIC (ppm)
Description: The Minimum Inhibitory Concentration (MIC) Assay is a 96-well high throughput method that determines the minimum concentration of an active required to inhibit the growth of microorganisms. Organism preparation: Compounds were evaluated against the following microorganisms: Staphylococcus aureus ATCC #6538 (American Type Culture Collection, Manassas, Virginia, USA). To prepare bacteria solutions, bacteria were streaked on Tryptic Soy Agar (TSA) and incubated at 30-35° C. for 18-24 hrs. Confluent growth was transferred to saline (0.85% NaCl) and turbidometrically adjusted to a target concentration of 10^7-10^8 CFU/ml. This inoculum solution was further diluted 1:1000 in Tryptic Soy Broth (pH 7) for assay use. Assay: Two-fold serial dilutions were prepared in Dimethylsulfoxide (DMSO, Thermo Scientific Pierce DMSO, Sequencing Grade) or sterile water for each test sample. In a sterile 96-well plate, each dilution was further diluted in broth inoculum such that each well contained 5% dilution and 95% broth inoculum. Bacteria plates were incubated on an orbital shaker (Heidolph Titramax 1000 Vibrating Platform Shaker, 200-300 rpm) for 24±2 hrs at 35° C. After incubation, the optical density (OD) of each well was measured in a spectrophotometer (Victor Nivo Multimode Plate Reader) at 600 nm. […] To determine the Minimum Biocidal Concentration (MBC), 2 ul from each well was pipetted onto neutralizing agar (Modified Letheen Agar with Tween) and incubated for 24 hrs at 30-35° C. The MBC was determined as the most dilute concentration with no visible growth.

[3] = system: Escherichia coli ATCC 8739; assay: Minimal Kill Concentration Assay (MKCA), E. coli; conditions: for MBC: Escherichia coli, ATCC8739, 20 min, read-out: E. coli MKC (ppm)
Description: as §1

[4] = Table 1.4b, solvent DMSO, 20-minute contact time
[5] = Table 4, derivatized rhamnolipids, solvent DMSO, 20-minute contact time

Row | Molecule | MBC ([2]; Table 5) [µg/mL] | MIC ([2]; Table 5) [µg/mL] | S. aureus MKC (ppm) [1, 5] [ppm] | S. aureus MBC (ppm) ([2]; Table 5) | S. aureus MIC (ppm) ([2]; Table 5) | E. coli MKC (ppm) [3, 5] [ppm] | further results
1 | CCCCCC(CC(=O)O)OC1O[C@@H](C)[C@H](O)[C@@H](O)[C@H]1O (some centres unmarked) [Rha1C14] | – | – | – | – | – | – | S. aureus MKC (ppm) [1, 4]: 781 ppm; S. aureus MIC (ppm) ([2]; Table 1.5, >=50% inhibition, 24 hrs at 35° C.): 625 ppm; S. aureus MBC (ppm) ([2]; Table 1.5, no visible growth): >10000 ppm; E. coli MKC (ppm) [3, 4]: 781 ppm
2 | CCCCCCCC(CC(=O)O)O[C@@H]1O[C@@H](C)[C@H](O)[C@@H](O)[C@H]1O[C@@H]1O[C@H](C)C(O)[C@@H](O)[C@H]1O (stereo partly drawn) [calcium 3-(((2R,3R,4R,5R,6S)-4,5-dihydroxy-6-methyl-3-(((2S,3R,4R,6R)-3,4,5-trihydroxy-6-methyltetrahydro-2H-pyran-2-yl)oxy)tetrahydro-2H-pyran-2-yl)oxy)decanoate] | > 4000 | > 4000 | – | – | – | – | MBC ([1]; Staphylococcus aureus, ATCC6538, 20 min, read-out: S. aureus MKC (ppm)): > 9390 µg/mL; MBC [3]: > 9390 µg/mL
3 | CCCCCCCC(CC(=O)OC)O[C@@H]1O[C@@H](C)[C@H](O)[C@@H](O)[C@H]1O (stereo partly drawn) [methyl 3-(((2R,3R,4R,5R,6S)-3,4,5-trihydroxy-6-methyltetrahydro-2H-pyran-2-yl)oxy)decanoate] | 1400 (≈ 4 mM) | 1400 (≈ 4 mM) | – | – | – | – | minimal kill concentration (20-minute contact) ([1]; Staphylococcus aureus, ATCC6538, 20 min, Table 4, derivatized rhamnolipids, solvent DMSO, 20-minute contact time, read-out: S. aureus MKC (ppm)): > 3490 µg/mL; MBC [3, 5]: > 3490 µg/mL
4 | Methyl 3-(((2R,3R,4R,5R,6S)-4,5-dihydroxy-6-methyl-3-(((2R,3S,4S,5S,6S)-3,4,5-trihydroxy-6-methyltetrahydro-2H-pyran-2-yl)oxy)tetrahydro-2H-pyran-2-yl)oxy)decanoate | – | – | >4945.8 | 1978.3 | 1978.3 | >4945.8 | –
5 | N-benzyl-3-(((2R,3R,4R,5R,6S)-4,5-dihydroxy-6-methyl-3-(((2R,3S,4S,5S,6S)-3,4,5-trihydroxy-6-methyltetrahydro-2H-pyran-2-yl)oxy)tetrahydro-2H-pyran-2-yl)oxy)decanamide | – | – | >5696.9 | >2278.3 | 2278.8 | >5696.9 | –

Reference: patent US20260000596A1, “SEMI-SYNTHETIC RHAMNOLIPIDS” (The Procter & Gamble Company, priority 2024, published 2026)
